Experimental data published in patent US12174198B2, “Methods of characterizing condensate-associated characteristics of compounds and uses thereof” (Dewpoint Therapeutics, Inc., priority 2019, dated 2024).

Tests used:
Format in all cases: physicochemical
FUS-SNAP condensates = biological target: T1, FUS-SNAP condensates (Homo sapiens, UniProt P35637); test: Fluorescence imaging of dye partitioning in FUS-SNAP condensates (I-in, I-out); settings: for Ratio of intensity inside:outside FUS-SNAP Condensates Day 1 / Ratio of intensity inside:outside FUS-SNAP Condensates Day 2 / Ratio of intensity inside:outside FUS-SNAP Condensates Average: I-in:I-out; for Ratio of intensity inside:outside FUS-SNAP Condensates Day 1 / Ratio of intensity inside:outside FUS-SNAP Condensates Day 2 / Ratio of intensity inside:outside FUS-SNAP Condensates Average / Intensity Inside with Dye Average / Intensity Inside with Dye 1 / Intensity Inside with Dye 2 / Intensity Inside with Dye 3 / Intensity Outside with Dye Average / Intensity Outside with Dye 1 / Intensity Outside with Dye 2 / Intensity Outside with Dye 3: 10 μM dye; for Ratio of intensity inside:outside FUS-SNAP Condensates Average: average of two days; for Intensity Inside with Dye Average / Intensity Inside with Dye 1 / Intensity Inside with Dye 2 / Intensity Inside with Dye 3 / Intensity Inside Dye-No Dye: inside FUS-SNAP condensate; for Intensity Inside with Dye Average / Intensity Inside with Dye 1 / Intensity Inside with Dye 2 / Intensity Inside with Dye 3 / Intensity Outside with Dye Average / Intensity Outside with Dye 1 / Intensity Outside with Dye 2 / Intensity Outside with Dye 3: 5 μM protein; for Intensity Inside with Dye Average / Intensity Outside with Dye Average: average of three images; for Intensity Inside with Dye Average / Intensity Inside with Dye 1 / Intensity Inside with Dye 2 / Intensity Inside with Dye 3 / Intensity Inside Dye-No Dye / Intensity Outside with Dye Average / Intensity Outside with Dye 1 / Intensity Outside with Dye 2 / Intensity Outside with Dye 3 / Intensity Outside (Dye-No Dye): one day of experiments; for Intensity Inside with Dye 1 / Intensity Outside with Dye 1: image 1; for Intensity Inside with Dye 2 / Intensity Outside with Dye 2: image 2; for Intensity Inside with Dye 3 / Intensity Outside with Dye 3: image 3; for Intensity Inside Dye-No Dye / Intensity Outside (Dye-No Dye): background corrected; for Intensity Outside with Dye Average / Intensity Outside with Dye 1 / Intensity Outside with Dye 2 / Intensity Outside with Dye 3 / Intensity Outside (Dye-No Dye): outside FUS-SNAP condensate
T1 sequence (P35637 1-526): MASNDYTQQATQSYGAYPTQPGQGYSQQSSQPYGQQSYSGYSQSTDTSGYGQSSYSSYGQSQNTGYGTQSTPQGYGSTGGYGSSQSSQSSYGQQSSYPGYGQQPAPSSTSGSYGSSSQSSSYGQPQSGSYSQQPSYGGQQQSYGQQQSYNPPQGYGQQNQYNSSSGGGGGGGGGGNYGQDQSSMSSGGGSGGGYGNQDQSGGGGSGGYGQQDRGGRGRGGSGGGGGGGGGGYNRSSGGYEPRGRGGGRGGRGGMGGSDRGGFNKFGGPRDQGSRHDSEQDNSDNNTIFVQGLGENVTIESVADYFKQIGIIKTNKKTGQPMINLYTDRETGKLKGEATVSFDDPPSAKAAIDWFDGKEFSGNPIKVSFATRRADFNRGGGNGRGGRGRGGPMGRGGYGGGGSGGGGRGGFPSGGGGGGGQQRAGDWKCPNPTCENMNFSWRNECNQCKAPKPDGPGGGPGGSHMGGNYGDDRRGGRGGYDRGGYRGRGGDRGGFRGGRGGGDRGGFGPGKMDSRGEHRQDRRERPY
Protocol: (§1) All dye-stocks were stored as 1 mM solutions in 100% DMSO. The dyes were dissolved in dilution buffer (DB: 14.7 mM Tris, pH 7.25, 1 mM DTT) to yield 11.765 μM dye in 1.1765 DMSO. 17 μl of dye was distributed in a 384 well non-binding plate (Greiner).
(§2) Either SNAP-tagged FUS protein or tag-free PGL-3 protein was thawed at room temperature for at least 10 min, and the buffer was exchanged to partitioning buffer (PB: 50 mM Tris pH 7.25, 500 mM KCl, 5% Glycerol, and 1 mM DTT). The protein was then diluted to 33.3 μM in PB. 3 μl of protein solution were added to the 384 well plate to initiate phase separation, yielding 20 μl of 5 μM protein and 10 μM dye in 75 mM KCl, 0.75% Glycerol, 20 mM Tris, 1 mM DTT, and 1% DMSO or for no dye control reactions, 20 μl of 5 μM protein in 75 mM KCl, 0.75% Glycerol, 20 mM Tris, 1 mM DTT.
(§3) A spinning disk confocal microscope was used to acquire images of the samples. A 60×oil high-NA objective lens was used to capture the condensate droplets. The laser power was set to 20% and the exposure times were adjusted to the fluorescence emission intensity specific for each dye. Exposure times ranged from 1-1000 ms. Appropriate filter settings were used, matching the excitation and emission spectra of the respective dyes. Three images per well were taken. The background signal of protein droplets in the absence of dye was recorded for all applied imaging conditions.
(§4) Fluorescence intensity was measured inside one exemplary target condensate (Intensity inside, I-in) per image and in a region next to the exemplary target condensate (Intensity outside, I-out) by hand using the image analysis software Fiji. An example depicting the regions measured is shown FIG. 2A. Three I-in and three I-out values were measured in total for each dye in each experiment and were averaged. The measured I-in and I-out values for FUS-SNAP condensates on one day of experiments are shown in Table 2 and Table 3, respectively. The measured I-in and I-out values for PGL-3 condensates on one day of experiments are shown in Table 4 and Table 5, respectively. All values were background corrected, based on the background images (no dye controls) taken with the same microscope conditions.
(§5) The ratios of the average intensity measured in the target condensates and outside of the target condensates were calculated by dividing I-in by I-out, although dividing I-out by I-in could also have been used. The I-in:I-out ratios determined from the two different days of experiments were then averaged. The average I-in:I-out ratios for FUS-SNAP condensates are shown in FIG. 3 and the average I-in:I-out ratios for PGL-3 condensates are shown in FIG. 4. The standard deviation between the two experiments is represented by the error bars in FIG. 3 and FIG. 4.

PGL-3 condensates = biological target: T2, PGL-3 condensates (Caenorhabditis elegans, UniProt G5EBV6); test: Fluorescence imaging of dye partitioning in PGL-3 condensates (I-in, I-out); settings: for Ratio of intensity inside:outside PGL-3 Condensates Day 1 / Ratio of intensity inside:outside PGL-3 Condensates Day 2 / Ratio of intensity inside:outside PGL-3 Condensates Average: I-in:I-out; for Ratio of intensity inside:outside PGL-3 Condensates Day 1 / Ratio of intensity inside:outside PGL-3 Condensates Day 2 / Ratio of intensity inside:outside PGL-3 Condensates Average / Intensity Inside with Dye Average / Intensity Inside with Dye 1 / Intensity Inside with Dye 2 / Intensity Inside with Dye 3 / Intensity Outside with Dye Average / Intensity Outside with Dye 1 / Intensity Outside with Dye 2 / Intensity Outside with Dye 3: 10 μM dye; for Ratio of intensity inside:outside PGL-3 Condensates Average: average of two days; for Intensity Inside with Dye Average / Intensity Inside with Dye 1 / Intensity Inside with Dye 2 / Intensity Inside with Dye 3 / Intensity Inside Dye-No Dye: inside PGL-3 condensate; for Intensity Inside with Dye Average / Intensity Inside with Dye 1 / Intensity Inside with Dye 2 / Intensity Inside with Dye 3 / Intensity Outside with Dye Average / Intensity Outside with Dye 1 / Intensity Outside with Dye 2 / Intensity Outside with Dye 3: 5 μM protein; for Intensity Inside with Dye Average / Intensity Outside with Dye Average: average of three images; for Intensity Inside with Dye Average / Intensity Inside with Dye 1 / Intensity Inside with Dye 2 / Intensity Inside with Dye 3 / Intensity Inside Dye-No Dye / Intensity Outside with Dye Average / Intensity Outside with Dye 1 / Intensity Outside with Dye 2 / Intensity Outside with Dye 3 / Intensity Outside (Dye-No Dye): one day of experiments; for Intensity Inside with Dye 1 / Intensity Outside with Dye 1: image 1; for Intensity Inside with Dye 2 / Intensity Outside with Dye 2: image 2; for Intensity Inside with Dye 3 / Intensity Outside with Dye 3: image 3; for Intensity Inside Dye-No Dye / Intensity Outside (Dye-No Dye): background corrected; for Intensity Outside with Dye Average / Intensity Outside with Dye 1 / Intensity Outside with Dye 2 / Intensity Outside with Dye 3 / Intensity Outside (Dye-No Dye): outside PGL-3 condensate
T2 sequence (G5EBV6 1-693): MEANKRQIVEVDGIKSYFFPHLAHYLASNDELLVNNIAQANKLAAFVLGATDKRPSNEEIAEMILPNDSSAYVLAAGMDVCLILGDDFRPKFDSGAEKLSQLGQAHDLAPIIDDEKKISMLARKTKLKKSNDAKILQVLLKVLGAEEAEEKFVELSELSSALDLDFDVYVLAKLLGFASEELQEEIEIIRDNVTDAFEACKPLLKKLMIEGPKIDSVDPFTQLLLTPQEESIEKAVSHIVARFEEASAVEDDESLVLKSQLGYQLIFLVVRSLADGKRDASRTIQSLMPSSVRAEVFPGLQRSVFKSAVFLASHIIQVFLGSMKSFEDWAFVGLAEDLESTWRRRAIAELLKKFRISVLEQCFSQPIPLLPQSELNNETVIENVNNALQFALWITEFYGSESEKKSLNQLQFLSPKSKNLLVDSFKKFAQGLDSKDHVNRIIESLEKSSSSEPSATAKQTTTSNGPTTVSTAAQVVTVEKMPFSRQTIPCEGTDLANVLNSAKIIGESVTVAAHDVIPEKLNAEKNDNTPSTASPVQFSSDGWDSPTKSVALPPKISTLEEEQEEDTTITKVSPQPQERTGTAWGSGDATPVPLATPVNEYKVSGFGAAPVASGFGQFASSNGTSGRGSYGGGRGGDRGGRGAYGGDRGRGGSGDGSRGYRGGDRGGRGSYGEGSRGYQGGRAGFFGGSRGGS
Protocol: as §1, §2, §3, §4, §5

[1] = tested on: FUS-SNAP condensates versus PGL-3 condensates; test: Condensate preference: ratio of FUS-SNAP I-in:I-out to PGL-3 I-in:I-out; settings: average FUS-SNAP I-in:I-out divided by average PGL-3 I-in:I-out
Protocol: as §5

| Compound | Ratio of intensity inside:outside FUS-SNAP Condensates Day 1 (FUS-SNAP condensates) | Ratio of intensity inside:outside FUS-SNAP Condensates Day 2 (FUS-SNAP condensates) | Ratio of intensity inside:outside FUS-SNAP Condensates Average (FUS-SNAP condensates) | Intensity Inside with Dye Average (FUS-SNAP condensates) | Intensity Inside with Dye 1 (FUS-SNAP condensates) | Intensity Inside with Dye 2 (FUS-SNAP condensates) | Intensity Inside with Dye 3 (FUS-SNAP condensates) | Intensity Inside Dye-No Dye (FUS-SNAP condensates) | Intensity Outside with Dye Average (FUS-SNAP condensates) | Intensity Outside with Dye 1 (FUS-SNAP condensates) | Intensity Outside with Dye 2 (FUS-SNAP condensates) | Intensity Outside with Dye 3 (FUS-SNAP condensates) | Intensity Outside (Dye-No Dye) (FUS-SNAP condensates) | Ratio of intensity inside:outside PGL-3 Condensates Day 1 (PGL-3 condensates) | Ratio of intensity inside:outside PGL-3 Condensates Day 2 (PGL-3 condensates) | Ratio of intensity inside:outside PGL-3 Condensates Average (PGL-3 condensates) | Intensity Inside with Dye Average (PGL-3 condensates) | Intensity Inside with Dye 1 (PGL-3 condensates) | Intensity Inside with Dye 2 (PGL-3 condensates) | Intensity Inside with Dye 3 (PGL-3 condensates) | other results |
| --- | --- | --- | --- | --- | --- | --- | --- | --- | --- | --- | --- | --- | --- | --- | --- | --- | --- | --- | --- | --- | --- |
| Polysucrose 40-fluorescein isothiocyanate conjugate [Dye 10] | 1.0 | 1.1 | 1.1 | 5756.6 | 6139.7 | 6105.5 | 5024.6 | 5621.4 | 5505.3 | 5878.5 | 5846.2 | 4791.0 | 5401.2 | 1.0 | 0.9 | 0.9 | 5674.9 | 5747.5 | 6281.4 | 4996.0 | Enrichment of dye in the condensate (fluorescent images) (FUS-SNAP condensates; FIG. 1, exemplary images of Example 2, condensate type not stated): not enriched in the condensate; Intensity Inside Dye-No Dye (PGL-3 condensates): 5528.4; Intensity Outside with Dye Average (PGL-3 condensates): 5893.8; Intensity Outside with Dye 1 (PGL-3 condensates): 5900.4; Intensity Outside with Dye 2 (PGL-3 condensates): 6581.6; Intensity Outside with Dye 3 (PGL-3 condensates): 5199.5; Intensity Outside (Dye-No Dye) (PGL-3 condensates): 5788.5; Ratio of FUS-SNAP:PGL-3 [1]: 1.1 |
| CC(=O)N[C@H]1[C@H](Oc2ccc3c(c2)Oc2cc(O)ccc2C32OC(=O)c3ccccc32)O[C@H](CO)[C@H](O)[C@@H]1O (stereo partly drawn) [Dye 5, Fluorescein mono-(N-acetyl-β-D-galactosaminide)] | 1.2 | 1.4 | 1.3 | 1896.7 | 2046.8 | 2005.1 | 1638.1 | 1399.1 | 1272.5 | 1319.4 | 1306.9 | 1191.0 | 1132.4 | 1.0 | 1.1 | 1.1 | 1834.5 | 1912.6 | 1794.0 | 1797.0 | Intensity Inside Dye-No Dye (PGL-3 condensates): 1237.3; Intensity Outside with Dye Average (PGL-3 condensates): 1392.9; Intensity Outside with Dye 1 (PGL-3 condensates): 1439.0; Intensity Outside with Dye 2 (PGL-3 condensates): 1386.2; Intensity Outside with Dye 3 (PGL-3 condensates): 1353.5; Intensity Outside (Dye-No Dye) (PGL-3 condensates): 1230.0; Ratio of FUS-SNAP:PGL-3 [1]: 1.3 |
| O=C(CCCC[C@@H]1SCC2NC(=O)NC21)NCCNC(=O)c1ccc(-c2c3ccc(=O)cc-3oc3ccc(O)cc23)c(C(=O)O)c1 (stereo partly shown) [Dye 13, Biotin-4-Fluorescein] | 2.1 | 2.1 | 2.1 | 4669.4 | 4600.2 | 4189.8 | 5218.3 | 4534.2 | 2242.3 | 2286.6 | 2244.6 | 2195.6 | 2138.2 | 1.1 | 1.1 | 1.1 | 3038.9 | 2939.4 | 3141.8 | 3035.4 | Intensity Inside Dye-No Dye (PGL-3 condensates): 2892.4; Intensity Outside with Dye Average (PGL-3 condensates): 2837.5; Intensity Outside with Dye 1 (PGL-3 condensates): 2781.8; Intensity Outside with Dye 2 (PGL-3 condensates): 2905.7; Intensity Outside with Dye 3 (PGL-3 condensates): 2825.1; Intensity Outside (Dye-No Dye) (PGL-3 condensates): 2732.2; Ratio of FUS-SNAP:PGL-3 [1]: 2.0 |
